Numbers after ± are expanded uncertainties.
Details: Liquid, High pressure cell

Structure (SMILES): CO [methanol]
- vapor or sublimation pressure (353.1 K): 181 ± 3 kPa
- vapor or sublimation pressure (393.1 K): 635 ± 3 kPa
